Laboratory results published in patent US20220062240A1, “METHODS OF TREATING CANCER USING A CLK INHIBITOR” (BioSplice Therapeutics, Inc., priority 2018, published 2022).
Like-named read-outs stand apart in the source and are kept apart here. Values belong to the molecule of their own block, whether it stands above or below them.

Assays:
CLK2 = target: T1, CLK2 (Homo sapiens, UniProt P49760); experiment: CLK2 kinase activity assay (Z-lyte, Ser/Thr 6 peptide); format: biochemical; conditions: recombinant CLK2 kinase, ATP 60 μM; read-out: EC50
T1 construct: purchased Thermo Fisher (Life Technologies), Z'-LYTE Kinase Assay Kits
Description: All reactions were performed in duplicate.

BT-549 = experiment: CellTiter-Glo Viability Assay, breast cancer; format: cell-based; conditions: Homo sapiens, 96 h; BT-549, breast cancer, four days; read-out: EC50
Description: (§1) Fifty-one human cancer cell lines (breast cancer (8 cell lines), colorectal cancer (6 cell lines), haematopoietic & lymphoid tumors (13 cell lines), liver cancer (3 cell lines), lung cancer (4 cell lines), ovarian cancer (4 cell lines), pancreatic cancer (8 cell lines), and prostate cancer (5 cell lines)) were tested to determine the effects of representative compounds of Formulas (I)-(XII) on cellular proliferation, as evaluated using the CellTiter-Glo® Viability Assay.
(§2) For the Cell Viability Assays, cells were plated at 300-3,000 cells/well in 384-well plates in their respective media containing 1% Penicillin-Streptomycin and incubated for four days at 37° C. and 5% CO2. Twenty-eight replicates of DMSO-treated cells served as controls and cells treated with compound were performed in duplicate.
(§3) After incubation, 10 μL of CellTiter-Glo® (Promega) was added to each well allowed to incubate for approximately 12 minutes. This reagent results in cell lysis and generation of a luminescent signal proportional to the amount of ATP present. The amount of ATP is directly proportional to the number of metabolically active, viable cells present in culture. The CellTiter-Glo® Assay generates a luminescent signal, produced by the luciferase reaction (Promega.com).
(§4) After incubation, the luminescence signal was read using an EnVision™ Multilabel Plate Reader (Perkin Elmer). Dose-response curves were generated and EC50 concentration values were calculated using Dotmatics' Studies Software (Bishops Stortford, UK).

CAMA1 = experiment: CellTiter-Glo Viability Assay, breast cancer; format: cell-based; conditions: Homo sapiens, CAMA-1, 96 h; CAMA1, breast cancer, four days; read-out: EC50
Description: as §1, §2, §3, §4

DU4475 = experiment: CellTiter-Glo Viability Assay, breast cancer; format: cell-based; conditions: Homo sapiens, DU-4475, 96 h; DU4475, breast cancer, four days; read-out: EC50
Description: as §1, §2, §3, §4

HCC1599 = experiment: CellTiter-Glo Viability Assay, breast cancer; format: cell-based; conditions: Homo sapiens, 96 h; HCC1599, breast cancer, four days; read-out: EC50
Description: as §1, §2, §3, §4

MCF7 = experiment: CellTiter-Glo Viability Assay, breast cancer; format: cell-based; conditions: Homo sapiens, 96 h; MCF7, breast cancer, four days; read-out: EC50
Description: as §1, §2, §3, §4

T47D = experiment: CellTiter-Glo Viability Assay, breast cancer; format: cell-based; conditions: Homo sapiens, 96 h, breast cancer, four days, read-out: EC50
Description: as §1, §2, §3, §4

ZR-75-1 = experiment: CellTiter-Glo Viability Assay, breast cancer; format: cell-based; conditions: Homo sapiens, 96 h; ZR-75-1, breast cancer, four days; read-out: EC50
Description: as §1, §2, §3, §4

all 50 cell lines = experiment: CellTiter-Glo Viability Assay, average across all cell lines; format: cell-based; conditions: Homo sapiens; across all 50 cell lines; read-out: average EC50 for inhibition of cancer cell proliferation
Description: as §1, §2, §3, §4

[1] = tested on: colorectal cancer (6 cell lines); experiment: CellTiter-Glo Viability Assay, colorectal cancer; format: cell-based; conditions: Homo sapiens, inhibition of cancer cell proliferation
Description: as §1, §2, §3, §4

[2] = tested on: haematopoietic & lymphoid tumors (13 cell lines); experiment: CellTiter-Glo Viability Assay, haematopoietic & lymphoid tumors; format: cell-based; conditions: Homo sapiens, inhibition of cancer cell proliferation
Description: as §1, §2, §3, §4

[3] = tested on: liver cancer (3 cell lines); experiment: CellTiter-Glo Viability Assay, liver cancer; format: cell-based; conditions: Homo sapiens, inhibition of cancer cell proliferation
Description: as §1, §2, §3, §4

[4] = tested on: lung cancer (4 cell lines); experiment: CellTiter-Glo Viability Assay, lung cancer; format: cell-based; conditions: Homo sapiens, inhibition of cancer cell proliferation
Description: as §1, §2, §3, §4

[5] = tested on: ovarian cancer (4 cell lines); experiment: CellTiter-Glo Viability Assay, ovarian cancer; format: cell-based; conditions: Homo sapiens, inhibition of cancer cell proliferation
Description: as §1, §2, §3, §4

[6] = tested on: pancreatic cancer (8 cell lines); experiment: CellTiter-Glo Viability Assay, pancreatic cancer; format: cell-based; conditions: Homo sapiens, inhibition of cancer cell proliferation
Description: as §1, §2, §3, §4

[7] = tested on: prostate cancer (5 cell lines); experiment: CellTiter-Glo Viability Assay, prostate cancer; format: cell-based; conditions: Homo sapiens
Description: as §1, §2, §3, §4

CLK3 = CLK3 (Homo sapiens, UniProt P49761); experiment: CLK3 kinase activity assay (Z-lyte, Ser/Thr 18 peptide)
MDA-MB-231-Luc = experiment: CellTiter-Glo Viability Assay, breast cancer; format: cell-based; conditions: Homo sapiens, 96 h; MDA-MB-231-Luc, breast cancer, four days; read-out: EC50
Description: as §1, §2, §3, §4

[8] = HCT-116, HCT116 cell line, read-out: Colorectal cancer, EC50 (μM) HCT116
[9] = HT-29, HT29 cell line, read-out: Colorectal cancer, EC50 (μM) HT29
[10] = SW-620, SW620 cell line, read-out: Colorectal cancer, EC50 (μM) SW620
[11] = DLD-1 cell line, read-out: Colorectal cancer, EC50 (μM) DLD-1
[12] = SW48 cell line, read-out: Colorectal cancer, EC50 (μM) SW48
[13] = SW480 cell line, read-out: Colorectal cancer, EC50 (μM) SW480
[14] = DND41, DND-41 cell line, read-out: Haematopoietic & Lymphoid tumors, EC50 (μM) DND-41
[15] = MV4-11, MV-4-11 cell line, read-out: Haematopoietic & Lymphoid tumors, EC50 (μM) MV-4-11
[16] = Rec1, REC-1 cell line, read-out: Haematopoietic & Lymphoid tumors, EC50 (μM) REC-1
[17] = SU-DHL-4, SUDHL4 cell line, read-out: Haematopoietic & Lymphoid tumors, EC50 (μM) SUDHL4
[18] = HL-60 cell line, read-out: Haematopoietic & Lymphoid tumors, EC50 (μM) HL-60
[19] = JM1 cell line, read-out: Haematopoietic & Lymphoid tumors, EC50 (μM) JM1
[20] = JURKAT, Clone E6-1 cell line, read-out: Haematopoietic & Lymphoid tumors, EC50 (μM) JURKAT, Clone E6-1
[21] = JeKo-1 cell line, read-out: Haematopoietic & Lymphoid tumors, EC50 (μM) JeKo-1
[22] = KASUMI-1 cell line, read-out: Haematopoietic & Lymphoid tumors, EC50 (μM) KASUMI-1
[23] = Loucy cell line, read-out: Haematopoietic & Lymphoid tumors, EC50 (μM) Loucy
[24] = MOLT-4 cell line, read-out: Haematopoietic & Lymphoid tumors, EC50 (μM) MOLT-4
[25] = TF-1 cell line, read-out: Haematopoietic & Lymphoid tumors, EC50 (μM) TF-1
[26] = TOLEDO cell line, read-out: Haematopoietic & Lymphoid tumors, EC50 (μM) TOLEDO
[27] = SNU-398, SNU398 cell line, read-out: Liver cancer, EC50 SNU398
[28] = HEPG2 cell line, read-out: Liver cancer, EC50 HEPG2
[29] = PLC/PRF/5 cell line, read-out: Liver cancer, EC50 PLC/PRF/5
[30] = A-427, A427 cell line, read-out: Lung cancer, EC50 (μM) A427
[31] = HCC78, HCC-78 cell line, read-out: Lung cancer, EC50 (μM) HCC-78
[32] = NCI-H460 cell line, read-out: Lung cancer, EC50 (μM) NCI-H460
[33] = NCI-H522 cell line, read-out: Lung cancer, EC50 (μM) NCI-H522
[34] = PA-1, PA1 cell line, read-out: Ovarian cancer, EC50 (μM) PA1
[35] = TOV112D, TOV-112D cell line, read-out: Ovarian cancer, EC50 (μM) TOV-112D
[36] = OV-90 cell line, read-out: Ovarian cancer, EC50 (μM) OV-90
[37] = OVCAR-3 cell line, read-out: Ovarian cancer, EC50 (μM) OVCAR-3
[38] = BXPC-3, BxPC3 cell line, read-out: Pancreatic cancer, EC50 BxPC3
[39] = CAPAN-1, Capan1 cell line, read-out: Pancreatic cancer, EC50 Capan1
[40] = Capan-2, Capan2 cell line, read-out: Pancreatic cancer, EC50 Capan2
[41] = MIA PaCa-2 cell line, read-out: Pancreatic cancer, EC50 MIA PaCa-2
[42] = PANC 05.04 cell line, read-out: Pancreatic cancer, EC50 PANC 05.04
[43] = PANC-1 cell line, read-out: Pancreatic cancer, EC50 PANC-1
[44] = UPAFII cell line, read-out: Pancreatic cancer, EC50 UPAFII
[45] = DU-145, read-out: Prostate cancer EC50 Du-145
[46] = PC-3, PC3 cell line, inhibition of cancer cell proliferation, read-out: Prostate cancer EC50 PC3
[47] = 22Rv1 cell line, inhibition of cancer cell proliferation, read-out: Prostate cancer EC50 22Rv1
[48] = LNCap clone FGC cell line, inhibition of cancer cell proliferation, read-out: Prostate cancer EC50 LNCap clone FGC
[49] = VCaP (Sigma) cell line, inhibition of cancer cell proliferation, read-out: Prostate cancer EC50 VCaP (Sigma)

CLK3, sequence (P49761 whole entry): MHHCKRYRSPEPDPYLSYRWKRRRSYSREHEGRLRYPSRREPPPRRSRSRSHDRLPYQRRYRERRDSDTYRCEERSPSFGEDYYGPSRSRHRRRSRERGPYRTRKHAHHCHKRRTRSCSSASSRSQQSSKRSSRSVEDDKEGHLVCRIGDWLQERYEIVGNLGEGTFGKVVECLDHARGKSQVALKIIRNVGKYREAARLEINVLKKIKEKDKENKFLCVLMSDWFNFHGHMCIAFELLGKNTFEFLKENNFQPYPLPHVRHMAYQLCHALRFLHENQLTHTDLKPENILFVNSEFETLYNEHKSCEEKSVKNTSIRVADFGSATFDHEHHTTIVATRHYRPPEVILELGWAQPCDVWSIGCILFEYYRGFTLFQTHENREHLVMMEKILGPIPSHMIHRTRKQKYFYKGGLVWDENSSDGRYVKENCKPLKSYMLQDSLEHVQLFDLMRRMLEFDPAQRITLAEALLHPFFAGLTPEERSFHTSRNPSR
T1 sequence (P49760 whole entry): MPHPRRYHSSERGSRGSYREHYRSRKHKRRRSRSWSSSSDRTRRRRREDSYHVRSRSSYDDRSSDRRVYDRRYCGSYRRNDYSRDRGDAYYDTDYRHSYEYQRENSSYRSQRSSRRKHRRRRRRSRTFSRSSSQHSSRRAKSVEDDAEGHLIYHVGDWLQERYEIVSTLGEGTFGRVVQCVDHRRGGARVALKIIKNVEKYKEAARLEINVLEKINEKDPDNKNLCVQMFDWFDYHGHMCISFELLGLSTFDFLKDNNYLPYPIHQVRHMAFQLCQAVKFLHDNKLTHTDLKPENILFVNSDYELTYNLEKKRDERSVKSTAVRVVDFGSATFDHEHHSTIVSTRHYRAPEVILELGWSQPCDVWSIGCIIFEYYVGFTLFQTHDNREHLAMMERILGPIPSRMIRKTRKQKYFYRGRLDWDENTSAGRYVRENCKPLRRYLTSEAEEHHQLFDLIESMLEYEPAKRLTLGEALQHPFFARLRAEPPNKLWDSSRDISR

EC50 (CLK2): 2 nM
EC50 (BT-549): 339 nM
EC50 (CAMA1): 329 nM
EC50 (DU4475): 137 nM
EC50 (HCC1599): 165 nM
EC50 (MCF7): 725 nM
EC50 (T47D): 503 nM
EC50 (ZR-75-1): 410 nM
EC50 [1, 8]: 0.14 µM
EC50 [1, 9]: 0.295 µM
EC50 [1, 10]: 0.113 µM
EC50 [1, 11]: 0.161 µM
EC50 [1, 12]: 0.096 µM
EC50 [1, 13]: 0.191 µM
EC50 [2, 14]: 0.216 µM
EC50 [2, 15]: 0.101 µM
EC50 [2, 16]: 0.08 µM
EC50 [2, 17]: 0.317 µM
EC50 [2, 18]: 0.719 µM
EC50 [2, 19]: 0.093 µM
EC50 [2, 20]: 0.511 µM
EC50 [2, 21]: 0.073 µM
EC50 [2, 22]: 0.174 µM
EC50 [2, 23]: 0.192 µM
EC50 [2, 24]: 0.327 µM
EC50 [2, 25]: 0.367 µM
EC50 [2, 26]: 0.104 µM
EC50 [3, 27]: 69 nM
EC50 [3, 28]: 431 nM
EC50 [3, 29]: 541 nM
EC50 [4, 30]: 0.303 µM
EC50 [4, 31]: 0.467 µM
EC50 [4, 32]: 0.268 µM
EC50 [4, 33]: 0.142 µM
EC50 [5, 34]: 0.186 µM
EC50 [5, 35]: 0.171 µM
EC50 [5, 36]: 0.464 µM
EC50 [5, 37]: 0.116 µM
EC50 [6, 38]: 484 nM
EC50 [6, 39]: 225 nM
EC50 [6, 40]: 464 nM
EC50 [6, 41]: 134 nM
EC50 [6, 42]: 323 nM
EC50 [6, 43]: 429 nM
EC50 [6, 44]: 157 nM
EC50 [7, 45]: 325 nM
EC50 [7, 46]: 240 nM
EC50 [7, 47]: 263 nM
EC50 [7, 48]: 422 nM
EC50 [7, 49]: 588 nM
EC50 (CLK3): 24 nM
SMILES: CN1CCN(c2cc(C(=O)Nc3cc4cc(-c5cn(C)nn5)ccc4cn3)ccn2)CC1 [Compound 14]
EC50 (all 50 cell lines): 289 nM

EC50 (CLK2): 2.9 nM
EC50 (BT-549): 1240 nM
EC50 (CAMA1): 1220 nM
EC50 (DU4475): 640 nM
EC50 (HCC1599): 1130 nM
EC50 (MCF7): 2560 nM
EC50 (MDA-MB-231-Luc): 1100 nM
EC50 (T47D): 1430 nM
EC50 [1, 8]: 0.396 µM
EC50 [1, 9]: 1.13 µM
EC50 [1, 10]: 0.26 µM
EC50 [1, 11]: 0.658 µM
EC50 [1, 12]: 0.185 µM
EC50 [1, 13]: 0.551 µM
EC50 [2, 14]: 0.914 µM
EC50 [2, 15]: 0.316 µM
EC50 [2, 16]: 0.23 µM
EC50 [2, 17]: 0.972 µM
EC50 [2, 18]: 2.59 µM
EC50 [2, 19]: 0.216 µM
EC50 [2, 20]: 1.62 µM
EC50 [2, 21]: 0.319 µM
EC50 [2, 22]: 0.842 µM
EC50 [2, 23]: 0.78 µM
EC50 [2, 24]: 0.965 µM
EC50 [2, 25]: 1.31 µM
EC50 [2, 26]: 0.3 µM
EC50 [3, 27]: 234 nM
EC50 [3, 28]: 734 nM
EC50 [3, 29]: 1930 nM
EC50 [4, 30]: 0.856 µM
EC50 [4, 31]: 1.47 µM
EC50 [4, 32]: 1.26 µM
EC50 [4, 33]: 0.553 µM
EC50 [5, 34]: 0.643 µM
EC50 [5, 35]: 0.61 µM
EC50 [5, 36]: 1.64 µM
EC50 [5, 37]: 0.446 µM
EC50 [6, 38]: 2070 nM
EC50 [6, 39]: 1120 nM
EC50 [6, 40]: 1290 nM
EC50 [6, 41]: 461 nM
EC50 [6, 42]: 1190 nM
EC50 [6, 43]: 1830 nM
EC50 [6, 44]: 593 nM
EC50 [7, 45]: 1040 nM
EC50 [7, 46]: 848 nM
EC50 [7, 47]: 847 nM
EC50 [7, 48]: 1540 nM
EC50 [7, 49]: 3500 nM
EC50 (CLK3): 27.2 nM
SMILES: CN1CCN(c2cc(C(=O)Nc3cc4cc(-c5nnc(N(C)C)s5)ccc4cn3)ccn2)CC1 [Compound 84]
EC50 (all 50 cell lines): 1040 nM
